Among the data in patent US20240083897A1, “GCN2 MODULATING COMPOUNDS AND USES THEREOF” (HiberCell, Inc., priority 2021, published 2024) are IC50 values, retold here.

Usually IC50 stands for the point on the concentration scale where inhibition reaches its midpoint.

GCN2, sequence (Q9P2K8 whole entry): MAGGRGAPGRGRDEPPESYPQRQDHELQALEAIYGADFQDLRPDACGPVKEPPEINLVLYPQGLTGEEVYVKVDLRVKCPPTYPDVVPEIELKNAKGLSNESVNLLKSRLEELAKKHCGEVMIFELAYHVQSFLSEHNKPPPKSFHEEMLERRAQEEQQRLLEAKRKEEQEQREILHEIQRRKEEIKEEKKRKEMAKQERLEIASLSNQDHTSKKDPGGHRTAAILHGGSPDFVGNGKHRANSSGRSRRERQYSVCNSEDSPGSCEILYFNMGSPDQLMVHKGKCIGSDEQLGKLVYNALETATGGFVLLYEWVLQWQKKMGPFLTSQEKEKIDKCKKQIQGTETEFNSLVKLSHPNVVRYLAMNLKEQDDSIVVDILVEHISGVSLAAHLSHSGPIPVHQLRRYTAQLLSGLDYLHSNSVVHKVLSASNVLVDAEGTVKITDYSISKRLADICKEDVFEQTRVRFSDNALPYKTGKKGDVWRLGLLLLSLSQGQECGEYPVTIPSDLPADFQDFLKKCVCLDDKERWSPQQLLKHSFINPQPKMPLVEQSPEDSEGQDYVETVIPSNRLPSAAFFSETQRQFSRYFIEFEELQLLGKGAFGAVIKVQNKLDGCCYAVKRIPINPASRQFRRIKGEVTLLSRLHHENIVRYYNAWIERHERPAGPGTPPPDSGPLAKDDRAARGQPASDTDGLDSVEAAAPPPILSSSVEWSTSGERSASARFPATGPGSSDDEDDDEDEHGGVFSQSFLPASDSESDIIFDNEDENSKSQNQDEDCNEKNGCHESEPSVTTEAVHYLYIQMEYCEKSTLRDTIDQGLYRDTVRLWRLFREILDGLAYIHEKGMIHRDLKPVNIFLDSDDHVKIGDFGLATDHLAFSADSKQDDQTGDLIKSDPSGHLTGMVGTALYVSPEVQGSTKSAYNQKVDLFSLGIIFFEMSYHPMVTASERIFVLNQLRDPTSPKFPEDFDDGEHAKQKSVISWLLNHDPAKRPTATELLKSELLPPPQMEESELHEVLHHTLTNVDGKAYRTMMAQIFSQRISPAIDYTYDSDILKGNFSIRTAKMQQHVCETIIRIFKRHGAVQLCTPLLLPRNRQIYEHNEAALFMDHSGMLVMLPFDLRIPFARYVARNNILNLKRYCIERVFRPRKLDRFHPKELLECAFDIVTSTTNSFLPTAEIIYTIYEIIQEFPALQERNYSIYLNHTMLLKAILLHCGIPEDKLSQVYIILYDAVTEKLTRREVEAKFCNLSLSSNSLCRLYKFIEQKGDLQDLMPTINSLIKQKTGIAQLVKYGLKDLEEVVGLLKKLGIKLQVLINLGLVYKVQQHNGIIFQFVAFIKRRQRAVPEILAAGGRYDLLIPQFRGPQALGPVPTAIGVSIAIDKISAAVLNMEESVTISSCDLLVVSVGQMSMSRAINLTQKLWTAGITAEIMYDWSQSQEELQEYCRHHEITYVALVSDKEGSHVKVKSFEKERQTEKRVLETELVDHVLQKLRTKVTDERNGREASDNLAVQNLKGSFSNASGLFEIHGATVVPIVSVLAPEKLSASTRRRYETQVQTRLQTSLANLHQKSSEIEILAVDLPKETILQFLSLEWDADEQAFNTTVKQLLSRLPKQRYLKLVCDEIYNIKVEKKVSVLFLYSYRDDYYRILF

One experiment concerns the target GCN2 (Homo sapiens (Human), UniProt Q9P2K8). Put plainly: TR-FRET biochemical assay for inhibition of GCN2.
Conditions: not given
A general note: TR-FRET usually uses a lanthanide donor and a delayed reading to cut background.
The molecule `COc1ncc(Cl)cc1S(=O)(=O)Nc1ccc(F)c(-c2ccc3c(-n4nccn4)ncn3c2)c1F` [Compound 55-2, 5-chloro-N-[2,4-difluoro-3-[1-(1,2,3-triazol-2-yl)imidazo[1,5-a]pyridin-6-yl]phenyl]-2-methoxypyridine-3-sulfonamide] gave an IC50 of 500 to 1000 nM.
For `CNC(=O)c1ncn2c1CC[C@H](c1c(F)ccc(NS(=O)(=O)c3cc(C#N)cnc3OC)c1F)C2` [Compound 68-1, (R)-6-(3-((5-cyano-2-methoxypyridine)-3-sulfonamido)-2,6-difluorophenyl)-N-methyl-5,6,7,8-tetrahydroimidazo[1,5-a]pyridine-1-carboxamide], the half-maximal inhibitory concentration (IC50) lay in the range of 50 to 500 nM.
Same read-out and setting: with `CNC(=O)c1ncn2c1CC[C@@H](c1c(F)ccc(NS(=O)(=O)c3cc(C#N)cnc3OC)c1F)C2` [Compound 68-2, (S)-6-(3-((5-cyano-2-methoxypyridine)-3-sulfonamido)-2,6-difluorophenyl)-N-methyl-5,6,7,8-tetrahydroimidazo[1,5-a]pyridine-1-carboxamide] the figure was 50 to 500 nM; with `COc1ncc(Cl)cc1S(=O)(=O)Nc1ccc(F)c([C@@H]2Cn3cnc(-c4ncc[nH]4)c3CN2C)c1F` [Compound 73-1, 5-chloro-N-[2,4-difluoro-3-[(6R)-1-(1H-imidazol-2-yl)-7-methyl-5H,6H,8H-imidazo[1,5-a]pyrazin-6-yl]phenyl]-2-methoxypyridine-3-sulfonamide], 50 to 500 nM; with `COc1ncc(Cl)cc1S(=O)(=O)Nc1ccc(F)c([C@H]2Cn3cnc(-c4ncc[nH]4)c3CN2C)c1F` [Compound 73-2, 5-chloro-N-[2,4-difluoro-3-[(6S)-1-(1H-imidazol-2-yl)-7-methyl-5H,6H,8H-imidazo[1,5-a]pyrazin-6-yl]phenyl]-2-methoxypyridine-3-sulfonamide], 50 to 500 nM.

The experiment is the same for the next values; noted with them: GCN2 2 nM, 100 nM GFP-eIF2a, 150 μM ATP, TR-FRET.
Turning to `Cc1cnc(-c2ncn3cc(-c4c(F)ccc(NS(=O)(=O)c5cc(Cl)cnc5C)c4F)ccc23)[nH]1` [Compound 56, 5-chloro-N-[2,4-difluoro-3-[1-(4-methyl-3H-imidazol-2-yl)imidazo[1,5-a]pyridine-6-yl]phenyl]-2-methylpyridine-3-sulfonamide], the IC50 is below 50 nM.
As to `COc1ncc(Cl)cc1S(=O)(=O)Nc1ccc(F)c(-c2ccc3c(-c4nnc(C)[nH]4)ncn3c2)c1F` [Compound 57, 5-chloro-N-[2,4-difluoro-3-[1-(5-methyl-4H-1,2,4-triazol-3-yl)imidazo[1,5-a]pyridin-6-yl]phenyl]-2-methoxypyridine-3-sulfonamide], the IC50 was below 50 nM.
Still for that read-out and setting: to `COc1ncc(F)cc1S(=O)(=O)Nc1ccc(F)c(-c2ccc3c(-c4nnc(C)[nH]4)ncn3c2)c1F` [Compound 58, N-[2,4-difluoro-3-[1-(5-methyl-4H-1,2,4-triazol-3-yl)imidazo[1,5-a]pyridin-6-yl]phenyl]-5-fluoro-2-methoxypyridine-3-sulfonamide] belongs below 50 nM; to `COc1ncc(C#N)cc1S(=O)(=O)Nc1ccc(F)c(-c2ccc3c(-c4nnc(C)[nH]4)ncn3c2)c1F` [Compound 59, 5-cyano-N-[2,4-difluoro-3-[1-(5-methyl-4H-1,2,4-triazol-3-yl)imidazo[1,5-a]pyridin-6-yl]phenyl]-2-methoxypyridine-3-sulfonamide], below 50 nM; to `Cc1nnc(-c2ncn3cc(-c4c(F)ccc(NS(=O)(=O)c5cc(F)cnc5C)c4F)ccc23)[nH]1` [Compound 60, N-[2,4-difluoro-3-[1-(5-methyl-4H-1,2,4-triazol-3-yl)imidazo[1,5-a]pyridin-6-yl]phenyl]-5-fluoro-2-methylpyridine-3-sulfonamide], below 50 nM.
Same read-out and setting: with `Cc1nnc(-c2ncn3cc(-c4c(F)ccc(NS(=O)(=O)c5cc(Cl)cnc5C)c4F)ccc23)[nH]1` [Compound 61, 5-chloro-N-[2,4-difluoro-3-[1-(5-methyl-4H-1,2,4-triazol-3-yl)imidazo[1,5-a]pyridin-6-yl]phenyl]-2-methylpyridine-3-sulfonamide] the figure was below 50 nM; with `Cc1ncc(Cl)cc1S(=O)(=O)Nc1ccc(F)c(-c2ccc3c(-c4ccn(C)n4)ncn3c2)c1F` [Compound 62, 5-chloro-N-[2,4-difluoro-3-[1-(1-methylpyrazol-3-yl)imidazo[1,5-a]pyridin-6-yl]phenyl]-2-methylpyridine-3-sulfonamide], below 50 nM; with `COc1ncc(Cl)cc1S(=O)(=O)Nc1ccc(F)c(-c2ccc3c(-n4cnnn4)ncn3c2)c1F` [Compound 63, 5-chloro-N-[2,4-difluoro-3-[1-(1,2,3,4-tetrazol-1-yl)imidazo[1,5-a]pyridin-6-yl]phenyl]-2-methoxypyridine-3-sulfonamide], below 50 nM.
Consider `COc1ncc(Cl)cc1S(=O)(=O)Nc1ccc(F)c([C@@H]2CCn3c(cnc3-c3ncc[nH]3)C2)c1F` [Compound 64-1, (R)—N-(3-(3-(1H-imidazol-2-yl)-5,6,7,8-tetrahydroimidazo[1,5-a]pyridin-7-yl)-2,4-difluorophenyl)-5-chloro-2-methoxypyridine-3-sulfonamide], for which the concentration for half-maximal inhibition (IC50) is below 50 nM.
Still for that read-out and setting: with `COc1ncc(Cl)cc1S(=O)(=O)Nc1ccc(F)c([C@H]2CCn3c(cnc3-c3ncc[nH]3)C2)c1F` [Compound 64-2, (S)—N-(3-(3-(1H-imidazol-2-yl)-5,6,7,8-tetrahydroimidazo[1,5-a]pyridin-7-yl)-2,4-difluorophenyl)-5-chloro-2-methoxypyridine-3-sulfonamide] the figure was below 50 nM.
`Cc1ncc(Cl)cc1S(=O)(=O)Nc1ccc(F)c(-c2ccc3c(-c4nnc[nH]4)ncn3c2)c1F` [Compound 65, 5-chloro-N-[2,4-difluoro-3-[1-(4H-1,2,4-triazol-3-yl)imidazo[1,5-a]pyridin-6-yl]phenyl]-2-methylpyridine-3-sulfonamide]: the IC50 was below 50 nM.
Molecule `COc1ncc(C#N)cc1S(=O)(=O)Nc1ccc(F)c(-c2ccc3c(-c4nc5ccccc5[nH]4)ncn3c2)c1F` [Compound 66, N-[3-[1-(1H-1,3-benzodiazol-2-yl)imidazo[1,5-a]pyridin-6-yl]-2,4-difluorophenyl]-5-cyano-2-methoxypyridine-3-sulfonamide] returned a half-inhibitory concentration (IC50) below 50 nM.
The molecule `COc1ncc(C#N)cc1S(=O)(=O)Nc1ccc(F)c(-c2cn3cnc(-c4ncc[nH]4)c3cn2)c1F` [Compound 69, 5-cyano-N-[2,4-difluoro-3-[1-(1H-imidazol-2-yl)imidazo[1,5-a]pyrazin-6-yl]phenyl]-2-methoxypyridine-3-sulfonamide] came in with an IC50 below 50 nM.
`COc1ncc(F)cc1S(=O)(=O)Nc1ccc(F)c(-c2ccc3c(-c4nnc[nH]4)ncn3c2)c1F` [Compound 70, N-[2,4-difluoro-3-[1-(4H-1,2,4-triazol-3-yl)imidazo[1,5-a]pyridin-6-yl]phenyl]-5-fluoro-2-methoxypyridine-3-sulfonamide] gave an IC50 below 50 nM.
Same read-out and setting: to `COc1ncc(C#N)cc1S(=O)(=O)Nc1ccc(F)c(-c2ccc3c(-c4nnc[nH]4)ncn3c2)c1F` [Compound 71, 5-cyano-N-[2,4-difluoro-3-[1-(4H-1,2,4-triazol-3-yl)imidazo[1,5-a]pyridin-6-yl]phenyl]-2-methoxypyridine-3-sulfonamide] belongs below 50 nM; to `Cc1ncc(F)cc1S(=O)(=O)Nc1ccc(F)c(-c2ccc3c(-c4nnc[nH]4)ncn3c2)c1F` [Compound 72, N-[2,4-difluoro-3-[1-(4H-1,2,4-triazol-3-yl)imidazo[1,5-a]pyridin-6-yl]phenyl]-5-fluoro-2-methylpyridine-3-sulfonamide], below 50 nM.
The same measure, in the same setting: with `COc1ncc(F)cc1S(=O)(=O)Nc1ccc(F)c(-c2ccc3c(-n4cnnn4)ncn3c2)c1F` [Compound 74, N-[2,4-difluoro-3-[1-(1,2,3,4-tetrazol-1-yl)imidazo[1,5-a]pyridin-6-yl]phenyl]-5-fluoro-2-methoxypyridine-3-sulfonamide] the figure was below 50 nM; with `COc1ncc(C#N)cc1S(=O)(=O)Nc1ccc(F)c(-c2ccc3c(-n4cnnn4)ncn3c2)c1F` [Compound 75, 5-cyano-N-[2,4-difluoro-3-[1-(1,2,3,4-tetrazol-1-yl)imidazo[1,5-a]pyridin-6-yl]phenyl]-2-methoxypyridine-3-sulfonamide], below 50 nM.
As to `Cc1ncc(F)cc1S(=O)(=O)Nc1ccc(F)c(-c2ccc3c(-n4cnnn4)ncn3c2)c1F` [Compound 76, N-[2,4-difluoro-3-[1-(1,2,3,4-tetrazol-1-yl)imidazo[1,5-a]pyridin-6-yl]phenyl]-5-fluoro-2-methylpyridine-3-sulfonamide], the IC50 is below 50 nM.
On the same count and under the same terms, with `Cc1ncc(Cl)cc1S(=O)(=O)Nc1ccc(F)c(-c2ccc3c(-n4cnnn4)ncn3c2)c1F` [Compound 77, 5-chloro-N-[2,4-difluoro-3-[1-(1,2,3,4-tetrazol-1-yl)imidazo[1,5-a]pyridin-6-yl]phenyl]-2-methylpyridine-3-sulfonamide] the figure was below 50 nM; with `COc1ncc(F)cc1S(=O)(=O)Nc1ccc(F)c(-c2cn3cnc(-c4ncc[nH]4)c3cn2)c1F` [Compound 78, N-[2,4-difluoro-3-[1-(1H-imidazol-2-yl)imidazo[1,5-a]pyrazin-6-yl]phenyl]-5-fluoro-2-methoxypyridine-3-sulfonamide], below 50 nM; with `COc1ncc(Cl)cc1S(=O)(=O)Nc1ccc(F)c([C@H]2CCc3c(-c4ncc[nH]4)ncn3C2)c1F` [Compound 79-1, 5-chloro-N-[2,4-difluoro-3-[(6R)-1-(1H-imidazol-2-yl)-5H,6H,7H,8H-imidazo[1,5-a]pyridin-6-yl]phenyl]-2-methoxypyridine-3-sulfonamide], below 50 nM.
On the same count and under the same terms, with `COc1ncc(Cl)cc1S(=O)(=O)Nc1ccc(F)c([C@@H]2CCc3c(-c4ncc[nH]4)ncn3C2)c1F` [Compound 79-2, 5-chloro-N-[2,4-difluoro-3-[(6S)-1-(1H-imidazol-2-yl)-5H,6H,7H,8H-imidazo[1,5-a]pyridin-6-yl]phenyl]-2-methoxypyridine-3-sulfonamide] the figure was below 50 nM; with `Cc1ncc(F)cc1S(=O)(=O)Nc1ccc(F)c([C@H]2CCc3c(-c4ncc[nH]4)ncn3C2)c1F` [Compound 80-1, N-[2,4-difluoro-3-[(6R)-1-(1H-imidazol-2-yl)-5H,6H,7H,8H-imidazo[1,5-a]pyridin-6-yl]phenyl]-5-fluoro-2-methylpyridine-3-sulfonamide], below 50 nM.
